Results on 6 molecules are retold here after PMC11002875, “Linking triphenylphosphonium cation to a bicyclic hydroquinone improves their antiplatelet effect via the regulation of mitochondrial function” (Redox Biology, 2024).

SMILES strings stand for the structures. Like-named read-outs stand apart in the source and are kept apart here.

The test system of data set [1] is Washed platelets. The data set is described as follows: Platelet aggregation in washed platelets (aggregometer). Format: cell-based, Human. Conditions: washed platelets. As for the experimental part:
(§1) Human platelet purification. The blood sample was obtained from voluntary donors (10 days without antiplatelet medication) who agreed to participate after signing informed consent (Scientific Ethics Committee of the University of Talca N° 04–2022). Briefly, blood anticoagulated with acid-citrate-dextrose (ACD) was obtained in a 4:1 v/v ratio. The sample was centrifuged for 12 min at 250 g to obtain platelet-rich plasma (PRP). Subsequently, the PRP was centrifuged for 8 min at 900 g to obtain the platelet pellet. The plasma supernatant was removed, and the platelets were resuspended in Tyrodes buffer without calcium plus ACD in a ratio of 5:1 v/v. The platelets were centrifuged once more for 8 min at 900 g and the pellet was resuspended in Tyrodes buffer without calcium. Finally, the platelets were counted (Mindray BC-3000 Plus hematology counter, Japan), adjusted to the desired concentration, and used within 3 h.
Platelet aggregation. Washed platelets (200-250 × 10^6 platelets/mL) were preincubated with 2 mM CaCl2 and then with the compounds under study for 5 min at 37 °C in the aggregometer (Agg RAM- Helena Biosciences). Aggregation was initiated with the agonists: collagen 2 μg/mL; convulxin 20 ng/mL; TRAP-6 (Thrombin receptor activator peptide 6) 5 μM; PMA (Phorbol myristate acetate) 100 nM or arachidonic acid 250 μg/mL. The aggregation curve was evaluated for 5 min at 37 °C in shaking at 1000 rpm.

For data set [2], the system named is Washed platelets. Description: Platelet activation markers in washed platelets (flow cytometry). The format is cell-based, Human. Conditions: collagen 2 μg/mL; compounds 1, 5 and 10 μM; vs activated control. The procedure: as §1
Platelet activation markers. Washed platelets (200-250 × 10^6 platelets/mL) were incubated with the compounds (1, 5 and 10 μM), then activated with collagen 2 μg/mL and incubated for 5 min at 37 °C. Aliquots of the reaction were then collected and labeled separately with human antibodies (BD Biosciences, San José, CA, USA) for P-selectin, CD63, activated GPIIb/IIIa (PAC-1), and fibrinogen to assess the levels of each marker on the platelet membrane. The sample was acquired using the BD Facs Lyric flow cytometer (BD Biosciences, USA). Representative dot plots are available in Supplementary Figures 8-11 and 20-23. In the case of the activation markers P-selectin and bound fibrinogen in PRP, the same procedure for washed platelets was performed with representative dot plots available in Supplementary Figs. 15 and 16. The platelet population was identified with anti-CD61-PE or anti-CD61-FITC (BD Biosciences, San José, CA, USA).
(In general: Flow cytometry measures light scatter and fluorescence of single cells or particles in a stream.)

Data set [3] deals with Washed platelets. Description: Intraplatelet calcium levels (Fluo-4-AM). Format: cell-based, Human. Conditions: compounds 1, 5 and 10 μM, 10 min. The procedure: as §1
Intraplatelet calcium levels. Washed platelets (200-250 × 10^6 platelets/mL) were labeled Fluo-4-AM probe with 0.5 μM and incubated for 20 min at room temperature protected from light. Subsequently, platelets were adjusted to a count of 50 × 10^6 platelets/mL, and compounds (1, 5, and 10 μM) were added and incubated for 10 min at 37 °C. The sample was acquired in the BD Facs Lyric flow cytometer (BD Biosciences, USA). Representative dot plots are available in Supplementary Figs. 13 and 26. As a control for increased intracellular calcium, P-trifluoromethoxyphenylhydrazone carbonylcyanide (FCCP) 1 μM was used.

The test system of data set [4] is Washed platelets. The data set is described as follows: Intraplatelet (cytosolic) ROS levels (DHE). Format: cell-based, Human. Conditions: compounds 1, 5 and 10 μM, 10 min. The procedure: as §1
Intraplatelet ROS levels. Washed platelets (50 × 10^6 platelets/mL) were labeled with the dihydroethidium (DHE) probe 10 μM and incubated for 20 min at 37 °C protected from light. After, compounds (1, 5, and 10 μM) were added to the platelets and incubated for 10 min at 37 °C. The sample was acquired in the BD Facs Lyric flow cytometer (BD Biosciences, USA). Representative dot plots are available in Supplementary Figs. 18 and 27. As a positive control for ROS, antimycin A 20 μM was used.

Data set [5] has as its system Washed platelets. Description: Mitochondrial membrane potential (TMRM). Format: cell-based, Human. The settings on record: compounds 1, 5 and 10 μM, 20 min. As for the experimental part:
as §1
Mitochondrial membrane potential (ΔΨm). Washed platelets (50 × 10^6 platelets/mL) were labeled with a 100 nM tetramethylrhodamine methyl ester (TMRM) probe and incubated with compounds (1, 5 and 10 μM) for 20 min at 37 °C. The sample was acquired in the BD Facs Lyric flow cytometer (BD Biosciences, USA). Representative dot plots are available in Supplementary Figs. 12, 24, and 25. Carbonyl cyanide 4-(trifluoromethoxy) phenylhydrazone (FCCP) 1 μM was used as a control for decreasing the mitochondrial membrane potential.

Data set [6] has as its system Washed platelets. The data set is described as follows: Cellular cytotoxicity by release of lactate dehydrogenase (LDH). Format: cell-based, Human. Conditions: screening at 10–100 μM. The procedure:
as §1
Cellular cytotoxicity by the release of lactate dehydrogenase (LDH). Washed platelets (200-250 × 10^6 platelets/mL) were incubated with the compounds under study or vehicle for 15 min at 37 °C. Then, the platelets were centrifuged at 900 g for 8 min to collect the supernatant. […] The absorbance was analyzed at 490 nm (Microplate Reader Thermo Scientific Multiskan Go, Finland).

In a further data set the test system is platelets. The data set is described as follows: Oxygen consumption and extracellular acidification rate (Seahorse XFe24). The format is cell-based, Human. Conditions: 10 µM. The procedure: as §1
Oxygen consumption and extracellular acidification rate. Oxygen consumption rate (OCR) and extracellular acidification rate (ECAR) were measured with a Seahorse XFe24 extracellular flux analyzer (Agilent, Santa Clara, CA, USA). Briefly, 100 μL of platelets washed in modified Tyrode-HEPES buffer were deposited (20–25 × 10^6 cells/well) and then centrifuged at 300 g for 10 min. Platelets were incubated with NP4 10 μM for 5 min, and then Tyrode's-HEPES buffer was removed and Seahorse medium (8.3 g/L DMEM, 1.85 g/L NaCl, 5 mM glucose, 1 mM pyruvate, 2 mM glutamine, 5 mM HEPES, pH 7.4) was added to a final volume of 600 μL [70]. OCR was measured before and after the sequential addition of 3 μg/mL collagen, 2.5 μM oligomycin, 1.4 μM FCCP, and 2 μM/2 μM antimycin A/rotenone. Non-mitochondrial OCR was subtracted from all measurements. Respiratory parameters obtained with Mito Stress Test (Supplementary Table 1) were calculated as follows: Baseline (baseline OCR), collagen (OCR after collagen addition), activation (collagen-basal), ATP-independent or proton leak (OCR resistant to oligomycin addition), ATP-linked respiration (basal-proton leak), maximum (OCR obtained after addition of FCCP), and spare (maximal-basal), coupling efficiency (OCR Basal – OCR ATP-indep)/OCR Basal). Respiratory parameters were calculated according to Refs. [66, 70, 73].

Where [7] appears, read: Homo sapiens, Platelet, PMA 100 nM, read-out: IC50 for platelet aggregation, PMA.
The mark [8] stands for this setting: Homo sapiens, Platelet, TRAP-6 5 μM, read-out: IC50 for platelet aggregation, TRAP-6.
Setting [9] is: Homo sapiens, Platelet, arachidonic acid 250 μg/mL, read-out: IC50 for platelet aggregation, Arachidonic Acid.
[10] abbreviates: Homo sapiens, Platelet, collagen 2 μg/mL, read-out: IC50 for platelet aggregation, Collagen.

As to `Cc1c(C)c(O)c2c(c1O)C(=O)C(CCCCBr)=CC2(C)C` [NB4, 2-(4-bromobutyl)-5,8-dihydroxy-4,4,6,7-tetramethylnaphthalen-1(4H)-one], the IC50 (usually the concentration that gives 50% inhibition) in the data set on Washed platelets [1] (setting [7]) was over 20 µM; with Washed platelets [1] (setting [8]), over 20 µM; with Washed platelets [1] (setting [9]) it was over 20 µM; in the data set with Washed platelets [1] (setting [10]), 15.3 ± 2.61 µM.
`COc1c(C)c(C)c(O)c2c1C(C)(C)C=C(CCCCBr)C2=O` [NBO4, 2-(4-bromobutyl)-8-hydroxy-5-methoxy-4,4,6,7-tetramethylnaphthalen-1(4H)-one]: the IC50 is over 20 µM in the data set on Washed platelets [1] (setting [7]), over 20 µM with Washed platelets [1] (setting [8]), over 20 µM in the data set on Washed platelets [1] (setting [9]) and 4.87 ± 1.15 µM with Washed platelets [1] (setting [10]).
`CCCCC1=CC(C)(C)c2c(O)c(C)c(C)c(O)c2C1=O` [NH4, 2-Butyl-5,8-dihydroxy-4,4,6,7-tetramethylnaphthalen-1(4H)-one]: in the data set with Washed platelets [2], the “Bound fibrinogen platelet activation marker” value is “did not have significant effects”. Besides, the “CD63 platelet activation marker” value in the data set with Washed platelets [2] is reported as “did not have significant effects”. Also, the “PAC-1 (activated GPIIb/IIIa) platelet activation marker” value in the data set with Washed platelets [2] is recorded as “did not have significant effects”. Further, the Intraplatelet calcium levels result in the data set with Washed platelets [3] is on record as “increase it significantly”. In addition, the IC50 in the data set with Washed platelets [1] (setting [7]) was over 20 µM; in the data set with Washed platelets [1] (setting [8]) it was over 20 µM; in the data set on Washed platelets [1] (setting [9]), over 20 µM; in the data set on Washed platelets [1] (setting [10]), 4.76 ± 0.7 µM. Besides, in the data set with Washed platelets [4], the “Cytosolic total ROS levels” value was “neither NP4 nor NH4 significantly affected”. Further, the “Mitochondrial membrane potential (ΔΨm)” value in the data set with Washed platelets [5] is recorded as “significantly decrease”.
For `CCCCC1=CC(C)(C)c2c(OC)c(C)c(C)c(O)c2C1=O` [NHO4, 2-Butyl-8-hydroxy-5-methoxy-4,4,6,7-tetramethylnaphthalen-1(4H)-one], the IC50 in the data set with Washed platelets [1] (setting [7]) is over 20 µM; in the data set with Washed platelets [1] (setting [8]), over 20 µM; in the data set on Washed platelets [1] (setting [9]), over 20 µM; with Washed platelets [1] (setting [10]), 18.4 ± 5.26 µM.
For `COc1c(C)c(C)c(O)c2c1C(C)(C)C=C(CCCC[P+](c1ccccc1)(c1ccccc1)c1ccccc1)C2=O.[Br-]` [NPO4, (4-(8-hydroxy-5-methoxy-4,4,6,7-tetramethyl-1-oxo-1,4-dihydronaphthalen-2-yl)butyl)triphenyl phosphonium bromide], the melting point (as a rule, the temperature, or range, at which the solid turns liquid) was 91.5 to 93 °C. The “Cytotoxicity by LDH release (screening)” value in the data set with Washed platelets [6] was “*NPO4 was excluded because showed high cytotoxicity”.
As to `CCCC[P+](c1ccccc1)(c1ccccc1)c1ccccc1` [TPPBut, butyltriphenylphosphonium cation, reference compound], in the data set with Washed platelets [2], the “Bound fibrinogen platelet activation marker” value is “did not show any effect”, the “CD63 platelet activation marker” value is given as “did not show any effect”, the “P-selectin platelet activation marker” value was “did not show any effect” and the “PAC-1 (activated GPIIb/IIIa) platelet activation marker” value is recorded as “did not show any effect”. Besides, in the data set with platelets, the “ATP-dep (OCRBasal – OCRATP-indep)” value is given as 5,68 ± 0,10, the “Activation (OCRCollagen – OCRBasal)” value was 0,59 ± 0,20, the “Coupling efficiency ((OCRBasal – OCRATP-indep)/OCRBasal)” value is 0,92 ± 0,01 and the “Spare (OCRMaximum – OCRBasal)” value is given as 0,73 ± 0,27. The “Basal (OCR/10^6 platelets)” value in the data set on platelets (Seahorse Mito Stress Test) was 6,21 ± 0,08 OCR/10^6 platelets. The “Maximum (OCR/10^6 platelets)” value with platelets (after 1.4 μM FCCP) was 6,94 ± 0,19 OCR/10^6 platelets. Further, the “Collagen (OCR/10^6 platelets)” value in the data set with platelets (after 3 μg/mL collagen) is recorded as 6,80 ± 0,16 OCR/10^6 platelets. Moreover, in the data set with platelets (after antimycin A/rotenone), the “Non-mito (OCR/10^6 platelets)” value is recorded as 0,01 ± 0,02 OCR/10^6 platelets. Moreover, the “ATP-indep (OCR/10^6 platelets)” value in the data set on platelets (proton leak, after 2.5 μM oligomycin) is given as 0,52 ± 0,05 OCR/10^6 platelets. Also, the Intraplatelet calcium levels entry with Washed platelets [3] is on record as “did not show any effect”. The 50% inhibitory concentration (IC50) in the data set on Washed platelets [1] (PMA 100 nM, read-out: IC50 for platelet aggregation, PMA) was over 20 µM. Moreover, the IC50 in the data set on Washed platelets [1] (TRAP-6 5 μM, read-out: IC50 for platelet aggregation, TRAP-6) was over 20 µM. Also, the IC50 in the data set with Washed platelets [1] (arachidonic acid 250 μg/mL, read-out: IC50 for platelet aggregation, Arachidonic Acid) is over 20 µM. In the data set with Washed platelets [1] (collagen 2 μg/mL, read-out: IC50 for platelet aggregation, Collagen), the IC50 was 13.7 ± 2.27 µM. The IC50 in the data set on Washed platelets [1] (convulxin 20 ng/mL, read-out: IC50 for platelet aggregation, Convulxin) is over 20 µM. Also, in the data set with Washed platelets [4], the “Cytosolic total ROS levels” value was “did not show any effect”. In addition, the “Mitochondrial membrane potential (ΔΨm)” value with Washed platelets [5] was “did not show any effect”.
